Earlier results on 3 compounds are cited in patent US10583082B2, “Composition comprising at least two dry powders obtained by spray drying to increase the stability of the formulation” (Eratech S.R.L., priority 2013, dated 2020).

Each structure is given as a SMILES string.

The conditions of this data set: from US 2001/0036481 A1.
`CCCCCCCCCCCCCCCC(=O)OC[C@H](COP(=O)([O-])OCC[N+](C)(C)C)OC(=O)CCCCCCCCCCCCCCC` [DPPC, dipalmitoylphosphatidylcholine]: the “phospholipid transition temperature (Tg) with humidity” value (from here on “phospholipid transition temperature”) is 41 °C. Consider `CCCCCCCCCCCCCCCCCC(=O)OC[C@H](COP(=O)([O-])OCC[N+](C)(C)C)OC(=O)CCCCCCCCCCCCCCCCC` [DSPC, distearoylphosphatidylcholine], for which the “phospholipid transition temperature” value is 55 °C. Regarding `CCCCCCCCCCCCCCCC(=O)OCC(COP(=O)(O)OCCN)OC(=O)CCCCCCCCCCCCCCC` (stereo not drawn) [DPPE, dipalmitoylphosphatidylethanolamine], the “phospholipid transition temperature” value was 63 °C.
